# Experimental data as given in patent publication US20210002371A1, “COMBINATION OF AN ANTI-PD-L1 ANTIBODY AND IDO1 INHIBITOR FOR THE TREATMENT OF CANCER” (Merck Patent GmbH, priority 2017, published 2021).
# Columns and labels:
# [1] = test system: IDO1 expressing mDCs co-cultured with PBMCs; assay: One-way Mixed Lymphocyte Reaction (MLR) assay, IFNγ production by ELISA; type: cell-based, human; settings: M4112 5 μM, avelumab 0.61-10000 ng/mL
# Procedure: High levels of IDO1 in mDCs correlate with suppressed avelumab activity (IFNγ production) in the one-way MLR assay, which is reversed in an avelumab dose-dependent manner when M4112 is used in combination. Prior to the one-way MLR assay, imDCs from donor 17988 were treated with 1 μg/mL LPS for two days to obtain mDCs. Cells were stained with either an isotype control Phycoerythrin (PE) antibody or an anti-IDO1-PE antibody. (A-B) Stained cells were analyzed via FACS. Purple (solid curve) represents isotype control stained cells and green (transparent curve) represents IDO1-PE stained cells. […] On (C) Day 4 (Experiment A) or (D) Day 3 (Experiment B) of the MLR assay, IFNγ levels ([…]) were measured in the co-culture supernatant via IFNγ ELISA. […]
# This example describes the in vitro characterization of M4112, alone and in combination with the anti-tumor compound avelumab, using one-way Mixed Lymphocyte Reaction (MLR) assays. […] Using this functional assay, the immune IDO1 expressing cells (mDCs) were cultured with PBMCs in the presence or absence of the IDO1/TDO2 inhibitor, M4112, and the immune response was evaluated by looking at IFNγ production. […]
# A one-way MLR assay was performed with a 2.3:1 ratio of PBMC to mDC (stimulated with LPS) under two different conditions. […] Both experiments measured the change in IFNγ concentration using the optical density of a standard curve from an ELISA.
# [2] = test system: MC38 colon carcinoma cells; assay: Anti-tumor efficacy in MC38 tumor-bearing mice (s.c. colon carcinoma model); type: in vivo, C57BL/6 female mice; settings: Day 24; M4112 200 mg/kg p.o. 2x/day for 4 weeks; avelumab 400 μg i.v. Days 0, 2, 4; control = M4112 vehicle + isotype control
# Procedure: (§1) Tumor growth data are presented in graphical form as the mean and standard error of the mean (SEM) of tumor volumes every 3 or 4 days. Two-way repeated measures analysis of variance (RM ANOVA) with Tukey's post-test was performed to assess differences in tumor volumes between treatment groups. Treatment/Control (T/C) values were calculated as the mean tumor volume of the treatment group divided by the mean tumor volume of the control group on the last day of observation and are expressed as percentages. In all cases, p<0.05 was considered statistically significant. Kaplan Meier survival curves were analyzed by Log-Rank (Mantel-Cox) test. A Bonferroni-corrected significance threshold of p<0.0125 was used to account for multiple comparisons.
# The combination treatment of avelumab and M4112 in the MC38 murine model was undertaken to evaluate the anti-tumor activity in C57BL/6 mice. […] The tumor volume, mice survival and mouse body weight were measured.
# MC38 cells were cultured in DMEM containing 4.5 g/L D-glucose, 2 mM glutamine, and 110 mg/L sodium pyruvate and supplemented with 10% FBS, 0.1 mM MEM NEAA, and penicillin/streptomycin. […] Cells were harvested by trypsinization with TrypLE Express and viable cell counts were determined using a Countess or hematocrit chamber cell counter and trypan blue exclusion staining. […]
# [3] = test system: CT26-KSA colon carcinoma cells; assay: Anti-tumor efficacy in CT26-KSA tumor-bearing mice (s.c. colon carcinoma model); type: in vivo, BALB/c female mice; settings: M4112 200 mg/kg p.o. 2x/day for 3 weeks, avelumab 400 μg i.v. Days 0, 3, 6
# Procedure: as §1
# The combination treatment of avelumab and M4112 in a CT26-KSA murine model was undertaken to evaluate the anti-tumor activity in BALB/c mice. […] The tumor volume, mice survival and mouse body weight were measured. […]
# CT26-KSA cells were cultured in RPMI-1640 medium containing 10% FBS, 2 mM L-glutamine, 0.1 mM non-essential amino acids (NEAA), 1 mM Na Pyruvate, 1% MEM vitamin solution and 1% G418 antibiotic (1 mg/mL). […] Cells were harvested by trypsinization with TrypLE Express and viable cell counts were determined using a Countess or hematocrit chamber cell counter and trypan blue exclusion staining. […]
smiles,measurement,setting,value
"NS(=O)(=O)[C@H]1CC[C@](F)(CC[C@H]2c3ccccc3-c3cncn32)CC1 [Compound M4112, c-4-fluoro-t-4-[(S)-2-(5H-imidazo[5,1-a]isoindol-5-yl)-ethyl]-cyclohexane-r-1-sulfonic acid amide]",avelumab activity (IFNγ production) in MLR,"[1]; Experiment A: IDO1-high mDCs, Day 4",the activity of avelumab was restored to normal levels
same,avelumab activity (IFNγ production) in MLR,"[1]; Experiment B: IDO1-low mDCs, Day 3",no change in avelumab activity
same,T/C (mean tumor volume of treatment group / mean tumor volume of control group),[2],72%
same,median survival time,[3]; CT26-KSA tumor-bearing mice,30.5 days
same,T/C (mean tumor volume of treatment group / mean tumor volume of control group),"[3]; Day 21, control = M4112 vehicle + isotype control",78%
